Patent US4859584A (priority 1986, dated 1989)
Residues, ends and D or L forms follow the SMILES beside them.

Tested on: rabbit red cells
Details: in vivo

| Compound | Effect on clearance rate of red blood cells | Lifetime of labelled red cells in circulation [days] |
| --- | --- | --- |
| CCCCCCCCCCCCCCN1C(=CC=CC=Cc2sc3ccccc3[n+]2CCCCCCCCCCCCCC)Sc2ccccc21 [DiSC14 (5)] | did not affect the clearance rate of red blood cells | 52 |

Tested on: V79 cells
Details: not given

| Compound | Cell doubling time / growth of labelled cells |
| --- | --- |
| CCCCCCCCCCCCCCN1C(=CC=Cc2oc3ccccc3[n+]2CCCCCCCCCCCCCC)Oc2ccccc21 [DiOC14 (3)] | Cell doubling time was unaffected |

Tested on: Yac cells
Details: not given

| Compound | Doubling [time] of Yac cells | Effect on cell doubling time (in words) |
| --- | --- | --- |
| NCCCS(=O)(=O)O [3-Amino-1-propanesulfonic acid] | 99.6 | – |
| NC(=O)CNCCS(=O)(=O)O [ACES, 2-[(2-Amino-2-oxoethyl)amino]ethane sulfonic acid] | 1038.4 | – |
| O=C(O)CN(CCO)CCO [BICINE, N,N-bis(2-hydroxyethyl)glycine] | 57.7 | – |
| O=S(=O)(O)CCCNC1CCCCC1 [CAPS, 3-(Cyclohexylamino)-1-propanesulfonic acid] | 45.8 | negligible effects on cell doubling time |
| O=S(=O)(O)CCNC1CCCCC1 [CHES, 2-(N-cyclohexylamino)ethane sulfonic acid] | 51.5 | – |
| O=S(=O)(O)CC(O)CN(CCO)CCO (centres unmarked) [DIPSO, 3-[N-N-bis(2-hydroxyethyl)amino]-2-hydroxypropane-sulfonic acid] | 36.7 | negligible effects on cell doubling time |
| O=S(=O)(O)CCCN1CCN(CCO)CC1 [EPPS, N-(2-Hydroxyethyl)piperazine-N-3-propanesulfonic acid] | 32.2 | negligible effects on cell doubling time |
| N[C@H]1C(O)O[C@H](CO)[C@@H](O)[C@@H]1O (some centres unmarked) [Glucosamine] | 288.4 | – |
| O=C[C@H](O)[C@@H](O)[C@H](O)[C@H](O)CO [Glucose] | 34.5 | negligible effects on cell doubling time |
| NCC(=O)NCC(=O)O [Glycylglycine] (H-Gly-Gly-OH) | 66.9 | – |
| O=S(=O)(O)CC(O)CN1CCN(CCO)CC1 (centres unmarked) [HEPPSO, N-2-hydroxyethylpiperazine-N-2-hydroxypropane-sulfonic acid] | 23.4 | negligible effects on cell doubling time |
| O=S(=O)(O)CC(O)CN1CCOCC1 (centres unmarked) [MOPSO, 3-(N-morpholino)-2-hydroxypropane-sulfonic acid] | 178.4 | – |
| OC[C@H]1O[C@@](CO)(O[C@H]2O[C@H](CO)[C@@H](O)[C@H](O)[C@H]2O)[C@@H](O)[C@@H]1O [Sucrose] | 41.0 | negligible effects on cell doubling time |
| O=S(=O)(O)CCCNC(CO)(CO)CO [TAPS, Tris(hydoxymethyl)-methylaminopropane sulfonic acid] | 32.7 | negligible effects on cell doubling time |
| O=S(=O)(O)CC(O)CNC(CO)(CO)CO (centres unmarked) [TAPSO, 3-[N-tris(hydroxymethyl)methylamino]-2-hydroxypropanesulfonic acid] | 63.6 | – |
| Phosphate Buffered Saline | 31.0 | – |
